# Results taken from US10517862B2, “Fused heterocyclic compound derivative and application thereof” (NHWA PHARMA. CORPORATION, priority 2015, dated 2019).
# Experiments:
# 5HT2C receptor = target: T1, 5HT2C receptor (Rattus norvegicus, UniProt P08909); test: 5HT2C receptor binding assay ([3H]-mesulergine, rat striatum membrane); details: for affinity with 5HT2C (in words): summary of in vitro assay; for inhibition at 10 µM: test compound final concentration 10^−5 M, [3H]-mesulergine, rat striatum membrane, read-out: 5HT2C Inhibition rate (%)
# T1 construct: from tissue; host or cells: rat brain striatum
# T1 sequence (P08909 33-460): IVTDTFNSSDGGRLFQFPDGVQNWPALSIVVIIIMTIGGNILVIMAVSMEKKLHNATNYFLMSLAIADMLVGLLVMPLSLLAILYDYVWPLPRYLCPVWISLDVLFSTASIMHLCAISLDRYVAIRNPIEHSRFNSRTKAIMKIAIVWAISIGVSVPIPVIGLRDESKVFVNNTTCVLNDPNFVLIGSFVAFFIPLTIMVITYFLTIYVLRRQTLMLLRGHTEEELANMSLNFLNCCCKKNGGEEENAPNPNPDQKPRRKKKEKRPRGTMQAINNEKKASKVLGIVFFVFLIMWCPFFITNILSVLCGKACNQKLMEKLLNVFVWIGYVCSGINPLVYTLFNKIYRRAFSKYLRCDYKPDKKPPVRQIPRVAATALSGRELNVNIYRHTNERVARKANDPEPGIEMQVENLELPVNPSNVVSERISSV
# Experimental: Preparation of 5HT2C Membrane
# Rats were decapitated on ice. […] Centrifugation was conducted.
# Materials for the Receptor Binding Assay
# [1] = test system: α1 norepinephrine receptor; test: α1 norepinephrine receptor binding assay (3H-prazosin, rat cortex membrane); details: for affinity with α1 (in words): summary of in vitro assay; for α1 Inhibition rate (%): test compound final concentration 10^−5 M, 3H-prazosin, rat cortex membrane
# Text: Preparation of Receptor Membrane of Norepinephrine
# α1 Norepinephrine Receptor Binding Assay
# in vivo = details: both sexes, mouse, in vivo, po; single intragastric administration in mice; read-out: LD50 (po, mg/kg)
Compound,affinity with 5HT2C (in words) (5HT2C receptor),inhibition at 10 µM (5HT2C receptor) [%],affinity with α1 (in words) [1],α1 Inhibition rate (%) [1] [%],LD50 at 7 days (in vivo) [mg/kg]
O=C(CCCN1CCC(c2noc3cc(F)ccc23)CC1)c1cc2c3c(c1)CCC(=O)N3CCC2 [Compound 5],low affinities,66.8,low affinities,43.75,> 2000
O=C(CCN1CCC(c2noc3cc(F)ccc23)CC1)c1cc2c3c(c1)CCN3C(=O)CC2 [Compound 12],low affinities,56.5,low affinities,58.91,> 2000
